Measured values reported in US9656963B2 (BRISTOL-MYERS SQUIBB COMPANY, priority 2012, dated 2017).

Target: T1, hGPR40 (Homo sapiens, UniProt O14842)
T1 construct: 3x FLAG; expressed in transfected cells
Experiment: FDSS-Based Intracellular Calcium Assay
Assay type: cell-based
Conditions: cells expressing GPR40, intracellular Ca2+ response
Procedure: FDSS-Based Intracellular Calcium Assay
Cell lines expressing GPR40 are generated using the pDEST 3× flag gene expression system and are cultured in culture medium comprising the following components: F12 (Gibco #11765), 10% lipid deprived fetal bovine serum, 250 μg/ml zeocin and 500 μg/ml G418. To conduct the fluorescent imaging plate reader (FLIPR)-based calcium flux assay to measure intracellular Ca^2+ response, cells expressing GPR40 are plated on 384 well plates (BD Biocoat #356697) at a density of 20,000 cells/20 μL medium per well in phenol red and serum-free DMEM (Gibco #21063-029) and incubated overnight. […] Compounds are dissolved in DMSO and diluted to desired concentrations with assay buffer and added to the cells as 3x solution (20 μL per well). Run fluorescence/luminescence reader FDSS (Hamamatsu) to read intracellular Ca^2+ response.

T1 sequence (O14842 whole entry): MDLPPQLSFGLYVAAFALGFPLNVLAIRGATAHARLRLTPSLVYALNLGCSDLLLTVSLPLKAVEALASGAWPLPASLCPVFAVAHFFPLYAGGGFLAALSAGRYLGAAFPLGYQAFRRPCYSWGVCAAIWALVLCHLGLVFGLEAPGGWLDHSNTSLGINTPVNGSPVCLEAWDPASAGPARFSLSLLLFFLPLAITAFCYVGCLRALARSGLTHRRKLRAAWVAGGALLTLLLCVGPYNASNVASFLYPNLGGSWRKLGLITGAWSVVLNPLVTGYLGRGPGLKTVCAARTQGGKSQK

Row | Structure (SMILES) | EC50
1 | COc1cccc(-c2ccc(Oc3ccc(N4N=C(C(F)(F)F)CC4CC(=O)O)cc3)c(C)c2)c1 (single isomer, unassigned) [Example 9, Isomer 1, 2-(1-(4-(3′-methoxy-3-methylbiphenyl-4-yloxy)phenyl)-3-(trifluoromethyl)-4,5-dihydro-1H-pyrazol-5-yl)acetic acid] | 190 nM
2 | Cc1cc(Cc2ccc(N3N=C(C(F)(F)F)CC3CC(=O)O)cc2)ccc1-c1cc(C(F)(F)F)ccc1F (racemic) [Example 24, 2-(1-(4-((2′-fluoro-2-methyl-5′-(trifluoromethyl)biphenyl-4-yl)methyl)phenyl)-3-(trifluoromethyl)-4,5-dihydro-1H-pyrazol-5-yl)acetic acid] | 570 nM
3 | COc1ccc(F)c(-c2cc(C)c(Oc3ccc(N4N=C(C#N)CC4CC(=O)O)cc3)cc2C)c1 (racemic) [Example 35, 2-(3-cyano-1-(4-(2′-fluoro-5′-methoxy-2,5-dimethylbiphenyl-4-yloxy)phenyl)-4,5-dihydro-1H-pyrazol-5-yl)acetic acid] | 180 nM
4 | COc1ccc(F)c(-c2ccc(Cc3ccc(N4N=C(C(F)(F)F)C(CC#N)C4CC(=O)O)cc3)c(C)c2)c1 (single isomer, unassigned) [Example 54, Isomer 2, 2-(4-(cyanomethyl)-1-(4-((2′-fluoro-5′-methoxy-3-methyl-[1,1′-biphenyl]-4-yl)methyl)phenyl)-3-(trifluoromethyl)-4,5-dihydro-1H-pyrazol-5-yl)acetic acid, trans-diastereomer] | 1100 nM
5 | COc1ccc(F)c(-c2ccc(Cc3ccc(N4N=C(C(F)(F)F)C(c5ccccc5)C4CC(=O)O)cc3)c(C)c2)c1 (single isomer, unassigned) [Example 47, Isomer 2, 2-(1-(4-((2′-fluoro-5′-methoxy-3-methylbiphenyl-4-yl)methyl)phenyl)-4-phenyl-3-(trifluoromethyl)-4,5-dihydro-1H-pyrazol-5-yl)acetic acid] | 5930 nM
6 | COc1cccc(-c2cc(C)c(Oc3ccc(N4N=C(C#N)CC4CC(=O)O)cc3)cc2C)c1 (racemic) [Example 36, 2-(3-cyano-1-(4-(3′-methoxy-2,5-dimethylbiphenyl-4-yloxy)phenyl)-4,5-dihydro-1H-pyrazol-5-yl)acetic acid] | 590 nM
7 | Cc1cc(-c2cc(O)ccc2F)ccc1Cc1ccc(N2N=C(C(F)(F)F)[C@@H](C)[C@@H]2CC(=O)O)cc1 [Example 56, 2-((4S,5S)-1-(4-((2′-fluoro-5′-hydroxy-3-methyl-[1,1′-biphenyl]-4-yl)methyl)phenyl)-4-methyl-3-(trifluoromethyl)-4,5-dihydro-1H-pyrazol-5-yl)acetic acid] | 150 nM
8 | COc1cccc(-c2ccc(Oc3ccc(N4N=C(C(F)(F)F)CC4CC(=O)O)cc3)c(C)c2)c1 (single isomer, unassigned) [Example 9, Isomer 2, 2-(1-(4-(3′-methoxy-3-methylbiphenyl-4-yloxy)phenyl)-3-(trifluoromethyl)-4,5-dihydro-1H-pyrazol-5-yl)acetic acid] | 290 nM
9 | COc1ccc(F)c(-c2ccc(Cc3ccc(N4N=C(C(F)(F)F)C(C)C4CC(=O)O)cc3)c(Cl)c2)c1 (single isomer, unassigned) [Example 60, Isomer 1, 22-(1-(4-((3-chloro-2′-fluoro-5′-methoxy-[1,1′-biphenyl]-4-yl)methyl)phenyl)-4-methyl-3-(trifluoromethyl)-4,5-dihydro-1H-pyrazol-5-yl)acetic acid] | 970 nM
10 | COc1ccc(F)c(-c2ccc(Cc3ccc(N4N=C(c5cccc(Cl)c5)[C@@H](C)[C@@H]4CC(=O)O)cc3)c(C)c2)c1 (single isomer, unassigned) [Example 68, isomer 2] | 8460 nM
11 | COc1ccc(F)c(-c2ccc(Cc3ccc(N4N=C(C(=O)O)[C@@H](C)[C@@H]4CC(=O)O)cc3)c(C)c2)c1 [Example 57, (4S,5S)-5-(carboxymethyl)-1-(4-((2′-fluoro-5′-methoxy-3-methyl-[1,1′-biphenyl]-4-yl)methyl)phenyl)-4-methyl-4,5-dihydro-1H-pyrazole-3-carboxylic acid] | 6620 nM
12 | COc1ccc(F)c(-c2ccc(Cc3ccc(N4N=C(c5ncccn5)C(C)C4CC(=O)O)cc3)c(C)c2)c1 (single isomer, unassigned) [Example 61, isomer 2] | 460 nM
13 | COc1ccc(F)c(-c2ccc(Cc3ccc(N4N=C(C(F)(F)F)C(C(C)C)C4CC(=O)O)cc3)c(C)c2)c1 (single isomer, unassigned) [Example 45, Isomer 1, 2-(1-(4-((2′-fluoro-5′-methoxy-3-methylbiphenyl-4-yl)methyl)phenyl)-4-isopropyl-3-(trifluoromethyl)-4,5-dihydro-1H-pyrazol-5-yl)acetic acid] | 3820 nM
14 | COc1ccc(F)c(-c2ccc(Cc3ccc(N4N=C(C(F)(F)F)C(CC5CC5)C4CC(=O)O)cc3)c(C)c2)c1 (single isomer, unassigned) [Example 46, Isomer 2, 2-(4-(cyclopropylmethyl)-1-(4-((2′-fluoro-5′-methoxy-3-methylbiphenyl-4-yl)methyl)phenyl)-3-(trifluoromethyl)-4,5-dihydro-1H-pyrazol-5-yl)acetic acid] | 1910 nM
15 | Cc1ccccc1Oc1ccc(N2N=C(C(=O)N(C)C)CC2CC(=O)O)cc1 (racemic) [Example 6, 2-(3-(dimethylcarbamoyl)-1-(4-(o-tolyloxy)phenyl)-4,5-dihydro-1H-pyrazol-5-yl)acetic acid] | 1810 nM
16 | COc1ccc(F)c(-c2ccc(Cc3ccc(N4N=C(C(F)(F)F)C(CC(C)C)C4CC(=O)O)cc3)c(C)c2)c1 (single isomer, unassigned) [Example 41, Isomer 2, 2-(1-(4-((2′-fluoro-5′-methoxy-3-methylbiphenyl-4-yl)methyl)phenyl)-4-isobutyl-3-(trifluoromethyl)-4,5-dihydro-1H-pyrazol-5-yl)acetic acid] | 95 nM
17 | COc1ccc(F)c(-c2ccc(Oc3ccc(N4N=C(C(F)(F)F)CC4CC(=O)O)cc3)c(Cl)c2)c1 (single isomer, unassigned) [Example 42, Isomer 1, 2-(1-(4-(3-chloro-2′-fluoro-5′-methoxybiphenyl-4-yloxy)phenyl)-3-(trifluoromethyl)-4,5-dihydro-1H-pyrazol-5-yl)acetic acid] | 620 nM
18 | COc1ccc(F)c(-c2ccc(Cc3ccc(N4N=C(C#N)CC4CC(=O)O)cc3)c(C)c2)c1 (single isomer, unassigned) [Example 34, Isomer 1, 2-(3-cyano-1-(4-((2′-fluoro-5′-methoxy-3-methylbiphenyl-4-yl)methyl)phenyl)-4,5-dihydro-1H-pyrazol-5-yl)acetic acid] | 150 nM
19 | Cc1cc(-c2ccncc2)ccc1Cc1ccc(N2N=C(C(F)(F)F)[C@@H](C)[C@@H]2CC(=O)O)cc1 [Example 78, 2-((4S,5S)-4-methyl-1-(4-(2-methyl-4-(pyridin-4-yl)benzyl)phenyl)-3-(trifluoromethyl)-4,5-dihydro-1H-pyrazol-5-yl)acetic acid] | 8330 nM
20 | COc1ccc(F)c(-c2ccc(Cc3ccc(N4N=C(c5ccc(F)cc5)[C@@H](C)[C@@H]4CC(=O)O)cc3)c(C)c2)c1 (single isomer, unassigned) [Example 67, isomer 1] | 9 nM
21 | COc1ccc(F)c(-c2cc(C)c(Cc3ccc(N4N=C(C(F)(F)F)CC4CC(=O)O)cc3)c(F)c2)c1 (single isomer, unassigned) [Example 21, Isomer 1, 2-(1-(4-((2′,3-difluoro-5′-methoxy-5-methylbiphenyl-4-yl)methyl)phenyl)-3-(trifluoromethyl)-4,5-dihydro-1H-pyrazol-5-yl)acetic acid] | 500 nM
22 | COc1ccc(OC)c(-c2ccc(Cc3ccc(N4N=C(C#N)CC4CC(=O)O)cc3)c(C)c2)c1 (single isomer, unassigned) [Example 49, Isomer 2, 2-(3-cyano-1-(4-((2′,5′-dimethoxy-3-methylbiphenyl-4-yl)methyl)phenyl)-4,5-dihydro-1H-pyrazol-5-yl)acetic acid] | 3110 nM
23 | COc1ccc(F)c(-c2ccc(Cc3ccc(N4N=C(C(F)(F)F)C(C(C)C)C4CC(=O)O)cc3)c(C)c2)c1 (single isomer, unassigned) [Example 45, Isomer 2, 2-(1-(4-((2′-fluoro-5′-methoxy-3-methylbiphenyl-4-yl)methyl)phenyl)-4-isopropyl-3-(trifluoromethyl)-4,5-dihydro-1H-pyrazol-5-yl)acetic acid] | 70 nM
24 | Cc1nc(-c2ccccc2)ncc1Cc1ccc(N2N=C(C(F)(F)F)[C@@H](C)[C@@H]2CC(=O)O)cc1 [Example 58, 2-((4S,5S)-4-methyl-1-(4-((4-methyl-2-phenylpyrimidin-5-yl)methyl)phenyl)-3-(trifluoromethyl)-4,5-dihydro-1H-pyrazol-5-yl)acetic acid] | 4290 nM
25 | COc1ccc(Cl)c(-c2ccc(Cc3ccc(N4N=C(C(F)(F)F)CC4CC(=O)O)cc3)cc2C)c1 (racemic) [Example 23, 2-(1-(4-((2′-chloro-5′-methoxy-2-methylbiphenyl-4-yl)methyl)phenyl)-3-(trifluoromethyl)-4,5-dihydro-1H-pyrazol-5-yl)acetic acid] | 350 nM
26 | COc1ccc(F)c(-c2ccc(Cc3ccc(N4N=C(C(F)(F)F)CC4CC(=O)O)cc3)c(C)c2)c1 (single isomer, unassigned) [Example 17, Isomer 2, 2-(1-(4-((2′-fluoro-5′-methoxy-3-methylbiphenyl-4-yl)methyl)phenyl)-3-(trifluoromethyl)-4,5-dihydro-1H-pyrazol-5-yl)acetic acid] | 90 nM
